Results on one compound are retold here after patent US20250127787A1, “METHODS FOR TREATING PERIPHERAL NEUROPATHY” (University of Pittsburgh - Of the Commonwealth System of …, priority 2021, published 2025).

Experiment [1] deals with glutathione peroxidase (GPx). Put plainly: Glutathione peroxidase activity in CYP-CIPN rat tissues. Format: in vivo. As to conditions: 8-AG 5 mg/kg/day in drinking water. As for the experimental part: (§1) Animals. This study employed female Harlan Sprague Dawley (HSD) rats (3-4 mo; Envigo, Indianapolis, IN) and were divided into the following groups: 1) Control, 2) Cyclophosphamide (CYP, 75 mg/kg i.p. in saline vehicle; administered on days 0, 3 and 6); 3) 8-aminoguanine (8-AG; 5 mg/kg/day in drinking water; beginning 2 weeks prior to CYP and continuing until sacrifice (day 8)). The dose of 8-AG is based on our preliminary and published experiments. […] The investigation conforms to the Guide for the Care and Use of Laboratory Animals published by the US National Institutes of Health (NIH Publication No. 85-23, revised 1996). […]
(§2) Western immunoblotting: Following the testing paradigms, rats were deeply anesthetized and tissues (e.g., epidermis, peripheral sciatic nerves, spinal cord segments (L3-L5) and dorsal root ganglia (L3-L5) were removed, and a portion of each preparation was homogenized using Lysing Matrix D in a FASTPREP® 24 instrument (MP Biomedicals, Solon, OH) in HBSS [5 mM KCl, 0.3 mM KH2PO4, 138 mM NaCl, 4 mM NaHO3, 0.3 mM Na2HCO3, 0.3 mM Na2HPO4, 5.6 mM glucose and 10 mM Hepes, pH 7.4 containing complete protease inhibitor cocktail (1 tablet/10 ml, Roche, Indianapolis, IN)] and phosphatase inhibitor cocktail (Sigma, 1:100). […] The protein concentrations of the supernatants were determined using the Pierce BCA protein assay (Thermo Scientific, Rockford, IL). […]

The next experiment concerns Mst3b. Put plainly: Mst3b expression in CYP-CIPN rat epidermis, Western immunoblotting. Format: in vivo. As to conditions: 8-AG 5 mg/kg/day in drinking water. The protocol:
as §1, §2
In general terms: In western blotting, separated proteins are transferred to a membrane and probed.

A further experiment has as its system mitofusin 2 (MFN2). The experiment can be described thus: MFN2 expression in CYP-CIPN rat hindpaw epidermis, Western immunoblotting. The conditions noted are these: 8-AG 5 mg/kg/day in drinking water. Type of experiment: in vivo. The protocol:
as §1, §2

In a further experiment the test system is PAC-CIPN rats. Put plainly: Von Frey sensory testing in PAC-CIPN rats. Format: in vivo, rat. The conditions noted are these: hindpaw footpad, paclitaxel 2 mg/kg i.p., 8-AG 5 mg/kg/day in drinking water. As for the experimental part:
Animals: This study employed female Harlan Sprague Dawley (HSD) rats (3-4 mo; Envigo, Indianapolis, IN) and were divided into the following groups: 1) Control, 2) Cyclophosphamide (CYP, 75 mg/kg i.p. in saline vehicle; administered on days 0, 3 and 6 until sacrifice on day 8); 4) Paclitaxel (2 mg/kg i.p., 2 mg/kg i.p. in saline from a stock solution of 50/50 CremophorEL/ethanol); administered on days 0, 2, 4 and 6 until sacrifice on day 8; 4) 8-aminoguanine (8-AG; 5 mg/kg/day in drinking water; beginning 2 weeks prior to either CYP or PAC and continuing until sacrifice (day 8)). The dose of 8-AG was based on the experiments described above. […] All tissues (spinal cord and hindpaw epidermis) were removed from isoflurane anesthetized rats and the tissue was used for various experimental approaches as described below. At the end of tissue removal, animals were sacrificed by thoracotomy.
Von Frey sensory testing, Control, PAC and 8-AG-treated PAC rats were placed in an elevated chamber on a wire mesh floor and after acclimatization, calibrated von Frey microfilaments were applied to determine paw withdrawal threshold (PWT, in grams). Briefly, microfilaments (Stoelting Corp, USA) were applied with different forces perpendicularly to the plantar surface of both ipsilateral and contralateral hindpaw by increasing and decreasing stimulus intensity. […]

Entries after “also recorded” stand apart in the source; their conditions may differ.

`Nc1nc2[nH]c(N)nc2c(=O)[nH]1` [8-AG, 8-Aminoguanine]: the “effect on CYP-induced increase in GPx activity” value in experiment [1] (epidermis) is on record as “significantly decreased; also recorded: restored values to that of a control state”; in experiment [1] (peripheral (sciatic) nerves) it was “normalized; also recorded: prevented”. The “effect on CYP-induced decrease in Mst3b expression” value with Mst3b was “completely restored; also recorded: completely prevented; also recorded: effective in restoring”. The “effect on CYP-induced decrease in MFN2 expression” value with mitofusin 2 (MFN2) is given as “reversed”. In the experiment on PAC-CIPN rats, the “effect on PAC-induced increase in sensitivity to mechanical stimuli (paw withdrawal threshold)” value is on record as “restored to control values; also recorded: normalized”.
